Like-named read-outs stand apart in the source and are kept apart here.
Tests used:
[1] = target: Biotinylated KRAS G12C protein (Homo sapiens (Human), UniProt P01116, C118S/C51S/C80L/G12C); assay: SOS-catalyzed nucleotide exchange assay (TR-FRET); assay type: biochemical; settings: in vitro apparent potency; preincubation time of 60 minutes prior to addition of SOS
Method in brief: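 Biotinylated KRAS G12C preloaded with Bodipy-GDP and Tb-streptavidin, then incubated with compound (10-point, 3-fold series) for 60 min at RT. Exchange started with SOS and GTP for 60 min. TR-FRET 520/495 ratio normalised to DMSO and saturating-inhibitor controls; four-parameter fit.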

phospho-ERK = assay: Cellular phospho-ERK assay; assay type: cell-based; settings: NCI-H358 cells, 2 hour incubation, ratio of p-Erk vs total Erk, read-out: IC50 (nM) pERK (Cell)
Method in brief: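 NCI-H358 cells seeded overnight, then exposed to compound dose-response titrations for 2 hours at 37° C. in RPMI. Lysates assayed by AlphaLISA SureFire Ultra multiplex for p-Erk and total Erk; ratio p-Erk/total Erk used as readout, IC50 from 4-parameter logistic fit.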

| Compound | IC50 [1] | IC50 (phospho-ERK) | IC50 (phospho-ERK; Homo sapiens, NCI-H358, 2 h) |
| --- | --- | --- | --- |
| C=CC(=O)N1CCN(c2nc(=O)n3c4nc(c(F)cc24)-c2c(F)cccc2OCCCc2ccnc(C(C)C)c2-3)C(C(F)F)C1 (stereo not shown) [Example 99, 2-[2-(difluoromethyl)-4-(prop-2-enoyl)piperazin-1-yl]-17,20-difluoro-6-(propan-2-yl)-11,12-dihydro-4H,10H-1,18-ethenopyrido[4,3-e]pyrimido[1,6-g][1,7,9]benzoxadiazacyclododecin-4-one] | 12 nM |  | 22 nM |
| C=CC(=O)N1C[C@H](C)N(c2nc(=O)n3c4nc(c(F)cc24)-c2cccc(F)c2OCCOc2ccnc(C(C)C)c2-3)C[C@H]1C [Example 114, 2-[(2S,5R)-2,5-dimethyl-4-(prop-2-enoyl)piperazin-1-yl]-14,20-difluoro-6-(propan-2-yl)-11,12-dihydro-4H-1,18-(ethanediylidene)pyrido[4,3-e]pyrimido[1,6-g][1,4,7,9]benzodioxadiazacyclododecin-4-one] | 43 nM | 112 nM |  |
| C=CC(=O)N1CCN(c2nc(=O)n3c4nc(c(F)cc24)-c2c(F)cccc2OCCCOc2ccnc(C(C)C)c2-3)[C@@H](C)C1 [Example 1a, 18,21-difluoro-2-[(2S)-2-methyl-4-(prop-2-enoyl)piperazin-1-yl]-6-(propan-2-yl)-12,13-dihydro-4H,11H-1,19-ethenopyrido[4,3-f]pyrimido[1,6-h][1,5,8,10]benzodioxadiazacyclotridecin-4-one] | 11 nM | 21 nM |  |
| C=CC(=O)N1CCN(c2nc(=O)n3c4nc(c(F)cc24)-c2c(ccc(F)c2F)OCC(F)(F)CCc2ccnc(C(C)C)c2-3)C[C@H]1C [Example 66, 12,12,17,18,21-pentafluoro-2-[(3R)-3-methyl-4-(prop-2-enoyl)piperazin-1-yl]-6-(propan-2-yl)-10,11,12,13-tetrahydro-4H-1,19-(ethanediylidene) pyrido[4,3-f]pyrimido[1,6-h] [1,8,10]benzoxadiazacyclo-tridecin-4-one] | 5.3 nM |  | 30 nM |
| C=CC(=O)N1C[C@H](C)N(c2nc(=O)n3c4nc(c(Cl)cc24)-c2c(F)cccc2OCCCc2ccnc(C(C)C)c2-3)C[C@H]1C [Example 63, 20-chloro-2-[(2S,5R)-2,5-dimethyl-4-(prop-2-enoyl)piperazin-1-yl]-17-fluoro-6-(propan-2-yl)-11,12-dihydro-4H,10H-1,18-(ethanediylidene)pyrido[4,3-e]pyrimido[1,6-g][1,7,9] benzoxadiazacyclodo-decin-4-one] | 3.6 nM |  | 2 nM |
| C=CC(=O)N1CCN(c2nc(=O)n3c4nc(c(F)cc24)-c2c(F)cccc2OCCCCc2ccnc(C(C)C)c2-3)[C@@H](C)C1 (single isomer, unassigned) [Example 4a] | 2.4 nM | 1.5 nM |  |
| C=CC(=O)N1C[C@H](C)N(c2nc(=O)n3c4nc(c(F)cc24)-c2c(F)ccc(F)c2OCCOc2ccnc(Cl)c2-3)C[C@H]1C [Example 87, 6-chloro-2-[(2S,5R)-2,5-dimethyl-4-(prop-2-enoyl)piperazin-1-yl]-14,17,20-trifluoro-11,12-dihydro-4H-1,18-ethenopyrido[4,3-e]pyrimido[1,6-g][1,4,7,9] benzodioxadiazacyclododecin-4-one] | 461 nM |  | 3210 nM |
| C=CC(=O)N1C[C@H](C)N(c2nc(=O)n3c4nc(c(F)cc24)-c2c(ccc(F)c2F)OCCC(C)c2ccnc(C(C)C)c2-3)C[C@H]1C (stereo partly drawn) [Example 90, 2-[(2S,5R)-2,5-dimethyl-4-(prop-2-enoyl)piperazin-1-yl]-16,17,20-trifluoro-10-methyl-6-(propan-2-yl)-11,12-dihydro-4H,10H-1,18-ethenopyrido[4,3-e]pyrimido[1,6-g][1,7,9]benzoxadiazacyclododecin-4-one] | 1.4 nM |  | 6.8 nM |
| C=CC(=O)N1C[C@H](C)N(c2nc(=O)n3c4nc(c(F)cc24)-c2c(F)cccc2OCCCCc2cnc(C(C)C)c-3c2C)C[C@H]1C (single isomer, unassigned) [Example 89] | 71 nM | 4160 nM |  |
| C=CC(=O)N1C[C@H](C)N(c2nc(=O)n3c4nc(c(F)cc24)-c2c(F)cccc2OCCCCc2cnc(C(C)C)c-3c2C)C[C@H]1C [Example 88, 2-[(2S,5R)-2,5-dimethyl-4-(prop-2-enoyl)piperazin-1-yl]-19,22-difluoro-24-methyl-7-(propan-2-yl)-11,12,13,14-tetrahydro-4H-1,20-etheno-6,10-(metheno)pyrimido[1,6-k][1,8,11,13]benzoxatriazacyclohexadecin-4-one] | 1.1 nM | 96 nM |  |
| C=CC(=O)N1C[C@H](C)N(c2nc(=O)n3c4nc(c(F)cc24)-c2cc(F)c(F)cc2OCCOc2ccnc(C(C)C)c2-3)C[C@H]1C [Example 84, 2-[(2S,5R)-2,5-dimethyl-4-(prop-2-enoyl)piperazin-1-yl]-15,16,20-trifluoro-6-(propan-2-yl)-11,12-dihydro-4H-1,18-(ethanediylidene)pyrido[4,3-e]pyrimido[1,6-g][1,4,7,9]benzodioxadiazacyclododecin-4-one] | 38 nM |  | 119 nM |
| 17,20-difluoro-6-(propan-2-yl)-2-[4-(prop- 2-enoyl)-2-(2,2,2-trifluoroethyl)piperazin- 1-yl]-11,12-dihydro-4H,10H-1,18- (ethanediylidene)pyrido[4,3- e]pyrimido[1,6-g][1,7,9] benzoxadiazacyclododecin-4-one [Example 101] | 29 nM | 137 nM |  |
| C=CC(=O)N1C[C@H](C)N(c2nc(=O)n3c4nc(c(F)cc24)-c2c(Cl)cccc2OCCCc2ccnc(C(C)C)c2-3)C[C@H]1C [Example 76, 17-chloro-2-[(2S,5R)-2,5-dimethyl-4-(prop-2-enoyl)piperazin-1-yl]-20-fluoro-6-(propan-2-yl)-11,12-dihydro-4H,10H-1,18-ethenopyrido[4,3-e]pyrimido[1,6-g][1,7,9]benzoxadiazacyclododecin-4-one] | 2.3 nM |  | 3.6 nM |

Next, values leading:

| IC50 [1] | IC50 (phospho-ERK) | IC50 (phospho-ERK; Homo sapiens, NCI-H358, 2 h) | Compound |
| --- | --- | --- | --- |
| 10 nM | 109 nM |  | C=CC(=O)N1CCN(c2nc(=O)n3c4nc(c(F)cc24)-c2c(F)cccc2OCCCCc2cnc(C(C)C)c-3c2)[C@H](C)C1 [Example 16b, 19,22-difluoro-2-[(2S)-2-methyl-4-(prop-2-enoyl)piperazin-1-yl]-7-(propan-2-yl)-11,12,13,14-tetrahydro-4H-1,20-(ethanediylidene)-6,10-(metheno)pyrimido[1,6-k][1,8,11,13]benzoxatriazacyclohexadecin-4-one] |
| 10 nM | 35 nM |  | C=CC(=O)N1CCN(c2nc(=O)n3c4nc(c(F)cc24)-c2c(F)cccc2COCCc2ccnc(C(C)C)c2-3)[C@@H](C)C1 [Example 18a, 17,20-difluoro-2-[(2S)-2-methyl-4-(prop-2-enoyl)piperazin-1-yl]-6-(propan-2-yl)-10,11-dihydro-1,18-ethenopyrido[3,4-e]pyrimido[6,1-c][9,2,4]benzoxadiazacyclododecin-4(13H)-one] |
| 11 nM | 66 nM |  | C=CC(=O)N1CCN(c2nc(=O)n3c4nc(c(F)cc24)-c2c(F)cccc2CCOCCc2ccnc(C(C)C)c2-3)[C@@H](C)C1 [Example 17a, 18,21-difluoro-2-[(2S)-2-methyl-4-(prop-2-enoyl)piperazin-1-yl]-6-(propan-2-yl)-10,11,13,14-tetrahydro-4H-1,19-ethenopyrido[3,4-e]pyrimido[6,1-c][9,2,4]benzoxadiazacyclotridecin-4-one] |
| 7.2 nM | 27 nM |  | C=CC(=O)N1C[C@H](C)N(c2nc(=O)n3c4nc(c(F)cc24)-c2c(F)cccc2OCC(F)(F)COc2ccnc(C(C)C)c2-3)C[C@H]1C (single isomer, unassigned) [Example 13a] |

From patent publication US20240043448A1, “Small Molecule Inhibitors of KRAS G12C Mutant” (Merck Sharp & Dohme LLC, priority 2019, published 2024)
